target: T1, Renin (Homo sapiens, UniProt P00797); test: Inhibitory activity against human plasma renin.; assay type: cell-free
T1 sequence (P00797 whole entry): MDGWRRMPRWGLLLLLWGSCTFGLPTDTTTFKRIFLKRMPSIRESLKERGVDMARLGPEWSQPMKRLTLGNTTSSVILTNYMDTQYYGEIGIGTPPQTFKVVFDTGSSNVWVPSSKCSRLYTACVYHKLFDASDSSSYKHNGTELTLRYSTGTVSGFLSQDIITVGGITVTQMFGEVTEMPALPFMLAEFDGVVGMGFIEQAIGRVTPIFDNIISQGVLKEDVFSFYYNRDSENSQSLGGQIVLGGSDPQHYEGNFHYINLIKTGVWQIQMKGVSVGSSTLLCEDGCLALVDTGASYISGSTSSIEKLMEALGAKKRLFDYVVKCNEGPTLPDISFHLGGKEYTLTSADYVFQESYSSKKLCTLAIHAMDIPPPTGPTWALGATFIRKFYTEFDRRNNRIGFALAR

IC50 | Structure (SMILES)
330 nM | CC[C@H](C)[C@H](NC(=O)C[C@@H](O)[C@H](CC(C)C)NC(=O)[C@H](Cc1c[nH]cn1)NC(=O)[C@H](Cc1ccccc1)NC(=O)OC(C)(C)C)C(=O)NCc1ccccn1
2800 nM | CC[C@H](C)[C@H](NC(=O)C(F)(F)[C@@H](N)[C@H](CC(C)C)NC(=O)[C@H](Cc1cnc[nH]1)NC(=O)[C@H](Cc1ccccc1)NC(=O)OC(C)(C)C)C(=O)NCc1ccccn1
340 nM | CC[C@H](C)[C@H](NC(=O)C(F)(F)[C@H](N)[C@H](CC(C)C)NC(=O)[C@H](Cc1cnc[nH]1)NC(=O)[C@H](Cc1ccccc1)NC(=O)OC(C)(C)C)C(=O)NCc1ccccn1
15 nM | CC[C@H](C)[C@H](NC(=O)C[C@H](N)[C@H](CC(C)C)NC(=O)[C@H](Cc1c[nH]cn1)NC(=O)[C@H](Cc1ccccc1)NC(=O)OC(C)(C)C)C(=O)NCc1ccccn1
480 nM | CC[C@H](C)[C@H](NC(=O)C[C@@H](N)[C@H](CC(C)C)NC(=O)[C@H](Cc1c[nH]cn1)NC(=O)[C@H](Cc1ccccc1)NC(=O)OC(C)(C)C)C(=O)NCc1ccccn1
